The source of these data is ChEMBL document CHEMBL1131945, “Nonpeptide small-molecular inhibitors of dipeptidyl peptidase IV: N-phenylphthalimide analogs” (Bioorg Med Chem Lett, 1999).

For orientation: IC50 means the point on the concentration scale where inhibition reaches its midpoint. Low readings indicate higher potency, high ones lower potency.

Test [1] is described as follows: Cytotoxicity in human embryonic lung flbroblast Wl-38 cells using WST-1 viability assay. (Tetrazolium assays rely on reduction of a dye to a coloured formazan, in cell work by metabolically active cells.)
The next test has as its target Dipeptidyl peptidase 4 (Homo sapiens, UniProt P27487). The test is described as follows: Inhibitory activity against Dipeptidylpeptidase IV (DPP IV) in human acute lymphoblastic leukemia MOLT-4 cell line. The format is cell-based.
For a further test, the target named is Aminopeptidase N (Homo sapiens, UniProt P15144). In words: Inhibitory activity against aminopeptidase N (APN) in human acute lymphoblastic leukemia MOLT-4 cell line. The format is cell-based.
Sequence of Aminopeptidase N (P15144 whole entry): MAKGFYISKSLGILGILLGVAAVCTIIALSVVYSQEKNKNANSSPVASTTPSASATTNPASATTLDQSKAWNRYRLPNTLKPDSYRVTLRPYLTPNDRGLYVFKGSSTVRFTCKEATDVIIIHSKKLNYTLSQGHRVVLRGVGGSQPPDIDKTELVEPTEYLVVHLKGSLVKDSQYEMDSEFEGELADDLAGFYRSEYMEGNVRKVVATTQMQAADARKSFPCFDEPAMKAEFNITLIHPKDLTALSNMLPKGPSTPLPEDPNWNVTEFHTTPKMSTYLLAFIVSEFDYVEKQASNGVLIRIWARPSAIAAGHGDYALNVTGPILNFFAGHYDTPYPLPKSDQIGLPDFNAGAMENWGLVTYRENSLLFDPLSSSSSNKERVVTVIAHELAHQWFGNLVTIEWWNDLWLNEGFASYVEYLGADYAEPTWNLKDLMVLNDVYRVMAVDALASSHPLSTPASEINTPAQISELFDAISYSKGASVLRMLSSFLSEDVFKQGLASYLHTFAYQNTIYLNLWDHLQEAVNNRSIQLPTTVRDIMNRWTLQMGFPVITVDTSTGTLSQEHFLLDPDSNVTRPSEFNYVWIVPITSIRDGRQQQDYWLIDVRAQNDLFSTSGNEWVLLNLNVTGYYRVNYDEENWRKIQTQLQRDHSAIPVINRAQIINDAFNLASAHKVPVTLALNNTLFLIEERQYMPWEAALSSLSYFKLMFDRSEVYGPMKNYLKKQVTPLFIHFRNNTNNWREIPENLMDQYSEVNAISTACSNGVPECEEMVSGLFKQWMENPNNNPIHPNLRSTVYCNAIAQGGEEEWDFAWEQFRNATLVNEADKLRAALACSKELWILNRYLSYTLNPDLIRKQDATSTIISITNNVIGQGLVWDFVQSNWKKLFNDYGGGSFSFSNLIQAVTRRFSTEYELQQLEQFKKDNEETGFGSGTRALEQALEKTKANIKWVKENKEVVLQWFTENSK

Where “and” joins values, the source holds several entries; their conditions need not be identical. Identical values can stand only once. Bounds are passed on as bounds.

Sequence of Dipeptidyl peptidase 4 (P27487 whole entry): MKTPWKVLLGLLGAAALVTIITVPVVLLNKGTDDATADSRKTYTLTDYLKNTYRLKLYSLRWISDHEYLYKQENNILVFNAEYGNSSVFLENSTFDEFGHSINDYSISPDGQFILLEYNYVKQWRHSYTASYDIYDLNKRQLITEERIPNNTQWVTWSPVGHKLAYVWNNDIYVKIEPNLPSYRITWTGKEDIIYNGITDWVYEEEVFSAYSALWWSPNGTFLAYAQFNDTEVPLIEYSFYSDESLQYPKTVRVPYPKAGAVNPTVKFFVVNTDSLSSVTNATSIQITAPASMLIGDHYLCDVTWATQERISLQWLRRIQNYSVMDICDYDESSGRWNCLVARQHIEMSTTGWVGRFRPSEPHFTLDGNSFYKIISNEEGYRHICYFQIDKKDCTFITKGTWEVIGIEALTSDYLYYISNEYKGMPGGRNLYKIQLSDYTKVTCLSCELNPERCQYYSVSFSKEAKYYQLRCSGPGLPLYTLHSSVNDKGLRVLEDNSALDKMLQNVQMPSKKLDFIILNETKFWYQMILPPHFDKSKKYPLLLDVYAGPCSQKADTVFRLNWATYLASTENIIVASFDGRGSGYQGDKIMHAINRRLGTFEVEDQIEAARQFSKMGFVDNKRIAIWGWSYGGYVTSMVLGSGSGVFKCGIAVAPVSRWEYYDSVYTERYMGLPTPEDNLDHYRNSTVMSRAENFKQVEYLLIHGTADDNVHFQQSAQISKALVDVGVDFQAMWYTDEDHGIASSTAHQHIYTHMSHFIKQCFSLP

For the molecule `Cc1cccc(C)c1N1C(=O)c2ccc([N+](=O)[O-])cc2C1=O`, the IC50 was over 100 µg/mL in test [1], over 338 µM against Dipeptidyl peptidase 4 and over 338 µM against Aminopeptidase N.

On to `CC(C)c1cccc(C(C)C)c1N1C(=O)c2c(F)c(F)c(F)c(F)c2C1=S`, for which the IC50 in test [1] was > 100 µg/mL and > 253 µM; on Dipeptidyl peptidase 4 it was 30.3 µM and 30.4 µM.

For `Cc1cccc(C)c1N1C(=O)c2cccc([N+](=O)[O-])c2C1=O`, the IC50 in test [1] was over 100 µg/mL; against Dipeptidyl peptidase 4, over 338 µM; at Aminopeptidase N, over 338 µM.

In the case of `CC(C)c1cccc(C(C)C)c1N1C(=S)c2c(F)c(F)c(F)c(F)c2C1=S`, the half-inhibitory concentration (IC50) in test [1] was 1.4 µg/mL and 3.4 µM; at Dipeptidyl peptidase 4 it was 36.7 µM.

On to `CCc1cccc(CC)c1N1C(=O)c2cccc(O)c2C1=O`, for which the IC50 in test [1] is > 100 µg/mL and > 339 µM; on Dipeptidyl peptidase 4, 43.3 µM.

Turning to `CSc1ccccc1N1C(=O)c2cccc([N+](=O)[O-])c2C1=O`, the values for the IC50 (in test [1]; on Dipeptidyl peptidase 4; at Aminopeptidase N) were over 100 µg/mL, over 318 µM and over 318 µM, respectively.

`Cc1cccc(C)c1N1C(=O)c2cccc(O)c2C1=O`: the IC50 in test [1] is over 100 µg/mL; on Dipeptidyl peptidase 4, over 374 µM.

In the case of `Cc1cccc(C)c1N1C(=O)c2ccc(N)cc2C1=O`, in test [1], the IC50 was > 100 µg/mL and > 376 µM.

`CC(C)c1cccc(C(C)C)c1N1C(=O)c2ccc(O)cc2C1=O`: the IC50 in test [1] is 12.7 µg/mL and 39.3 µM.

As to `Cc1cccc(C)c1N1C(=O)c2cccc(N)c2C1=O`, the IC50 is > 100 µg/mL and > 376 µM in test [1]; 60.1 µM against Dipeptidyl peptidase 4; 109 µM on Aminopeptidase N.

Take `CC(C)c1cccc(C(C)C)c1N1C(=O)c2ccccc2C1=S`: the IC50 was 60.5 µg/mL and 187 µM in test [1]; 57.8 µM at Dipeptidyl peptidase 4; > 309 µM and 309 µM against Aminopeptidase N.

Consider `CSc1ccccc1N1C(=O)c2cccc(O)c2C1=O`, for which the IC50 is > 100 µg/mL and > 350 µM in test [1]; 226 µM against Dipeptidyl peptidase 4; 134 µM against Aminopeptidase N.

As to `Cc1cccc(C)c1N1C(=O)c2ccc(O)cc2C1=O`, in test [1], the IC50 was > 100 µg/mL and > 374 µM.

With `CC(C)c1cccc(C(C)C)c1N1C(=O)c2cccc(O)c2C1=O`, in test [1], the IC50 is > 100 µg/mL and > 309 µM.

On to `CCc1cccc(CC)c1N1C(=O)c2ccc(O)cc2C1=O`, for which the IC50 in test [1] was 52 µg/mL and 176 µM.

Turning to `CC(C)c1cccc(C(C)C)c1N1C(=O)c2ccccc2C1=O`, the results for the IC50 (in test [1]; against Dipeptidyl peptidase 4) were over 100 µg/mL and over 325 µM, respectively.

For `Cc1cccc(C)c1N1C(=O)c2ccccc2C1=O`, the IC50 was over 100 µg/mL in test [1] and over 398 µM against Dipeptidyl peptidase 4.

With `CC(C)c1cccc(C(C)C)c1N1C(=O)c2ccc(N)cc2C1=O`, the IC50 in test [1] is > 100 µg/mL and > 310 µM.

As for `CC(C)c1cccc(C(C)C)c1N1C(=O)c2cccc([N+](=O)[O-])c2C1=O`, the IC50 in test [1] was 93.1 µg/mL and 264 µM; on Dipeptidyl peptidase 4 it was over 284 µM.

Turning to `CC(C)c1cccc(C(C)C)c1N1C(=O)c2ccc([N+](=O)[O-])cc2C1=O`, the IC50 in test [1] is 42.7 µg/mL and 121 µM; at Dipeptidyl peptidase 4, over 284 µM.
